{
  "source": "patent US10472381B2",
  "about": "“Sialic acid derivatives” (Reinhard Brossmer, priority 2014, dated 2019)",
  "note": "pIC50: −log10 of the molar value.",
  "data": [
    {"target": "T1, CD22 (Homo sapiens, UniProt P20273)", "T1 construct": "The soluble CD22 protein was expressed in the CHO-Lec1 cell line; made in house; host or cells: CHO-Lec1", "T1 sequence (P20273 20-687 limits assumed)": "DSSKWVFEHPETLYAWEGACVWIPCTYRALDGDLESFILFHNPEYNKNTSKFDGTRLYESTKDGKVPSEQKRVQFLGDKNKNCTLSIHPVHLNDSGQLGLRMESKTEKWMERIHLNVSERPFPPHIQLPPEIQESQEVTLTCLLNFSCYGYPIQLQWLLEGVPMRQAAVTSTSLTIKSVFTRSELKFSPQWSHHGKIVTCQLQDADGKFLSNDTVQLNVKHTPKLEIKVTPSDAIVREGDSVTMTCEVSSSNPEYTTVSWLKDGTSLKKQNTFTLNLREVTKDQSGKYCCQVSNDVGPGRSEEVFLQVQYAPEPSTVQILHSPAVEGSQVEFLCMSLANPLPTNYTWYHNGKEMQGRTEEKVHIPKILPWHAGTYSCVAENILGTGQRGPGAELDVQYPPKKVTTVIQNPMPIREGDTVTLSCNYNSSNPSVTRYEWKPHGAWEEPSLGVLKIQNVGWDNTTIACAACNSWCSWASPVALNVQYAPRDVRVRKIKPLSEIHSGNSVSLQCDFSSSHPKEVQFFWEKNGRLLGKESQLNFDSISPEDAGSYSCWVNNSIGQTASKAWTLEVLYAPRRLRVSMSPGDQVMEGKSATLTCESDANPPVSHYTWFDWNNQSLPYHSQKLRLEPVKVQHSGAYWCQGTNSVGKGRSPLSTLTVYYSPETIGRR", "test": "ELISA-based inhibition assay: inhibition of binding of soluble CD22 to immobilized IgM", "settings": "Table I; relative to reference BPCNeu5Ac (rIP = 1)", "procedure": "(§1) The biological activity of the substances was determined in an ELISA-based inhibition assay as described in “Eur. J. Immunol. 2012, 42, 2792-2802”. The sialic acid derivatives of the formula (I) inhibit the binding of soluble CD22 to immobilized IgM in proportion to their affinity for CD22. The soluble CD22 protein was expressed in the CHO-Lec1 cell line and isolated as described by “Eur. J. Immunol. 2012, 42, 2792-2802”. […] The increase in affinity is reported as rIP (relative inhibitory affinity).", "values": [
      {"smiles": "CO[C@]1(C(=O)[O-])C[C@H](O)[C@@H](NC(C)=O)[C@H]([C@H](O)[C@H](O)CNC(=O)c2ccc(-c3ccccc3)cc2)O1.[Na+]", "note": "[BPC Neu5 Ac, reference compound]", "rIP (relative inhibitory potency)": 1},
      {"smiles": "CCC(=O)N[C@H]1C[C@](OCCCCCC(=O)[O-])(C(=O)[O-])O[C@@H]([C@H](O)[C@H](O)CNC(=O)c2ccc(-c3ccccc3)cc2)[C@@H]1NC(C)=O.[Na+].[Na+]", "note": "[Compound 17]", "rIP (relative inhibitory potency)": 502}
    ]},
    {"target": "T1, CD22", "test": "ELISA-based inhibition assay: inhibition of binding of soluble CD22 to immobilized IgM", "settings": "Table I; soluble CD22 binding to immobilized IgM", "procedure": "as §1", "values": [
      {"smiles": "CC(=O)N[C@H]1[C@H]([C@H](O)[C@H](O)CNC(=O)c2ccc(-c3ccccc3)cc2)O[C@@](OCCCSCCC(=O)O)(C(=O)O)C[C@@H]1NC(=O)OC(C)(C)C", "note": "[Compound 29]", "pIC50": 7.07},
      {"smiles": "CO[C@]1(C(=O)[O-])C[C@H](O)[C@@H](NC(C)=O)[C@H]([C@H](O)[C@H](O)CNC(=O)c2ccc(-c3ccccc3)cc2)O1.[Na+]", "note": "[BPC Neu5 Ac, reference compound]", "pIC50": 5.21},
      {"smiles": "CC(=O)N[C@@H]1[C@@H](NS(C)(=O)=O)[C@H](O)[C@](OCCCCCC(=O)O)(C(=O)O)O[C@H]1[C@H](O)[C@H](O)CNC(=O)c1ccc(-c2ccccc2)cc1", "note": "[Compound 11]", "pIC50": 8.11},
      {"smiles": "CCC(=O)N[C@H]1C[C@](OCCCCCC(=O)[O-])(C(=O)[O-])O[C@@H]([C@H](O)[C@H](O)CNC(=O)c2ccc(-c3ccccc3)cc2)[C@@H]1NC(C)=O.[Na+].[Na+]", "note": "[Compound 17]", "pIC50": 7.92}
    ]},
    {"target": "T1, CD22", "test": "ELISA-based inhibition assay: inhibition of binding of soluble CD22 to immobilized IgM", "settings": "Table II; relative to reference compound 10 co-tested in the same assay (rIP = 1)", "procedure": "as §1", "values": [
      {"smiles": "CC(=O)N[C@@H]1[C@@H](NC(=O)c2ccccc2)[C@H](O)[C@](OCCCCCC(=O)[O-])(C(=O)[O-])O[C@H]1[C@H](O)[C@H](O)CNC(=O)c1ccc(-c2ccccc2)cc1.[Na+].[Na+]", "note": "[Compound 48]", "rIP": 0.93},
      {"smiles": "CC(=O)N[C@@H]1[C@@H](NC(=O)C(C)(C)C)[C@H](O)[C@](OCCCCCC(=O)[O-])(C(=O)[O-])O[C@H]1[C@H](O)[C@H](O)CNC(=O)c1ccc(-c2ccccc2)cc1.[Na+].[Na+]", "note": "[Compound 40]", "rIP": 0.38},
      {"smiles": "CC(=O)N[C@@H]1[C@@H](NC(=O)C2CC2)[C@H](O)[C@](OCCCCCC(=O)[O-])(C(=O)[O-])O[C@H]1[C@H](O)[C@H](O)CNC(=O)c1ccc(-c2ccccc2)cc1.[Na+].[Na+]", "note": "[Compound 45]", "rIP": 0.81},
      {"smiles": "CC(=O)N[C@@H]1[C@@H](NC(=O)CN(C)C)[C@H](O)[C@](OCCCCCC(=O)[O-])(C(=O)[O-])O[C@H]1[C@H](O)[C@H](O)CNC(=O)c1ccc(-c2ccccc2)cc1.[Na+].[Na+]", "note": "[Compound 47]", "rIP": 0.18},
      {"smiles": "CC(=O)N[C@@H]1[C@@H](NC(C)=O)[C@H](O)[C@](OCCCCCC(=O)[O-])(C(=O)[O-])O[C@H]1[C@H](O)[C@H](O)CNC(=O)c1ccc(-c2ccccc2)cc1.[Na+].[Na+]", "note": "[Compound 38]", "rIP": 0.45},
      {"smiles": "COc1cccc(C(=O)N[C@@H]2[C@@H](NC(C)=O)[C@H]([C@H](O)[C@H](O)CNC(=O)c3ccc(-c4ccccc4)cc3)O[C@@](OCCCCCC(=O)[O-])(C(=O)[O-])[C@H]2O)c1.[Na+].[Na+]", "note": "[Compound 49]", "rIP": 0.34},
      {"smiles": "CCCCC(=O)N[C@@H]1[C@@H](NC(C)=O)[C@H]([C@H](O)[C@H](O)CNC(=O)c2ccc(-c3ccccc3)cc2)O[C@@](OCCCCCC(=O)[O-])(C(=O)[O-])[C@H]1O.[Na+].[Na+]", "note": "[Compound 42]", "rIP": 1.22},
      {"smiles": "CC(=O)N[C@@H]1[C@@H](NC(=O)CO)[C@H](O)[C@](OCCCCCC(=O)[O-])(C(=O)[O-])O[C@H]1[C@H](O)[C@H](O)CNC(=O)c1ccc(-c2ccccc2)cc1.[Na+].[Na+]", "note": "[Compound 44]", "rIP": 0.24},
      {"smiles": "CC(=O)N[C@@H]1[C@@H](NC(=O)c2cccc(C)c2)[C@H](O)[C@](OCCCCCC(=O)[O-])(C(=O)[O-])O[C@H]1[C@H](O)[C@H](O)CNC(=O)c1ccc(-c2ccccc2)cc1.[Na+].[Na+]", "note": "[Compound 50]", "rIP": 0.51},
      {"smiles": "CC(=O)N[C@@H]1[C@@H](NC(=O)CCCl)[C@H](O)[C@](OCCCCCC(=O)[O-])(C(=O)[O-])O[C@H]1[C@H](O)[C@H](O)CNC(=O)c1ccc(-c2ccccc2)cc1.[Na+].[Na+]", "note": "[Compound 46]", "rIP": 0.84}
    ]},
    {"target": "T1, CD22", "test": "ELISA-based inhibition assay: inhibition of binding of soluble CD22 to immobilized IgM", "settings": "Table III; relative to reference compound 17 co-tested in the same assay (rIP = 1)", "procedure": "as §1", "values": [
      {"smiles": "CC(=O)N[C@H]1[C@H]([C@H](O)[C@H](O)CNC(=O)c2ccc(-c3ccccc3)cc2)O[C@@](OCCCCCC(=O)[O-])(C(=O)[O-])C[C@@H]1NC(=O)c1ccc(Cl)cc1.[Na+].[Na+]", "note": "[Compound 61]", "rIP": 3.4},
      {"smiles": "CC(=O)N[C@H]1[C@H]([C@H](O)[C@H](O)CNC(=O)c2ccc(-c3ccccc3)cc2)O[C@@](OCCCCCC(=O)[O-])(C(=O)[O-])C[C@@H]1NC(=O)c1ccccc1.[Na+].[Na+]", "note": "[Compound 53]", "rIP": 1.1},
      {"smiles": "CC(=O)N[C@H]1[C@H]([C@H](O)[C@H](O)CNC(=O)c2ccc(-c3ccccc3)cc2)O[C@@](OCCCCCC(=O)[O-])(C(=O)[O-])C[C@@H]1NC(=O)c1cccs1.[Na+].[Na+]", "note": "[Compound 56]", "rIP": 3.6},
      {"smiles": "CC(=O)N[C@H]1[C@H]([C@H](O)[C@H](O)CNC(=O)c2ccc(-c3ccccc3)cc2)O[C@@](OCCCCCC(=O)[O-])(C(=O)[O-])C[C@@H]1NC(=O)c1c(F)cccc1F.[Na+].[Na+]", "note": "[Compound 54]", "rIP": 0.75},
      {"smiles": "CC(=O)N[C@H]1[C@H]([C@H](O)[C@H](O)CNC(=O)c2ccc(-c3ccccc3)cc2)O[C@@](OCCCCCC(=O)[O-])(C(=O)[O-])C[C@@H]1NC(=O)c1cnccn1.[Na+].[Na+]", "note": "[Compound 55]", "rIP": 2.7},
      {"smiles": "CC(=O)N[C@H]1[C@H]([C@H](O)[C@H](O)CNC(=O)c2ccc(-c3ccccc3)cc2)O[C@@](OCCCCCC(=O)[O-])(C(=O)[O-])C[C@@H]1NC(=O)c1ccc(C(F)(F)F)cc1.[Na+].[Na+]", "note": "[Compound 64]", "rIP": 1.2},
      {"smiles": "CC(=O)N[C@H]1[C@H]([C@H](O)[C@H](O)CNC(=O)c2ccc(-c3ccccc3)cc2)O[C@@](OCCCCCC(=O)[O-])(C(=O)[O-])C[C@@H]1NC(=O)OCc1ccccc1.[Na+].[Na+]", "note": "[Compound 66]", "rIP": 1.3},
      {"smiles": "CCC(=O)N[C@H]1C[C@](OCCCCCC(=O)[O-])(C(=O)[O-])O[C@@H]([C@H](O)[C@H](O)CNC(=O)c2ccc(-c3ccccc3)cc2)[C@@H]1NC(C)=O.[Na+].[Na+]", "note": "[Compound 17]", "rIP": 1},
      {"smiles": "CC(=O)N[C@H]1[C@H]([C@H](O)[C@H](O)CNC(=O)c2ccc(-c3ccccc3)cc2)O[C@@](OCCCCCC(=O)[O-])(C(=O)[O-])C[C@@H]1NC(=O)CC1NC(=O)NC1=O.[Na+].[Na+]", "note": "(stereo partly drawn) [Compound 58]", "rIP": 3.4},
      {"smiles": "COc1ccc(C(=O)N[C@H]2C[C@](OCCCCCC(=O)[O-])(C(=O)[O-])O[C@@H]([C@H](O)[C@H](O)CNC(=O)c3ccc(-c4ccccc4)cc3)[C@@H]2NC(C)=O)cc1.[Na+].[Na+]", "note": "[Compound 63]", "rIP": 0.27},
      {"smiles": "CC(=O)N[C@H]1[C@H]([C@H](O)[C@H](O)CNC(=O)c2ccc(-c3ccccc3)cc2)O[C@@](OCCCCCC(=O)[O-])(C(=O)[O-])C[C@@H]1NC(=O)c1ccc(O)cc1.[Na+].[Na+]", "note": "[Compound 62]", "rIP": 1.7}
    ]},
    {"target": "T1, CD22", "test": "ELISA-based inhibition assay: inhibition of binding of soluble CD22 to immobilized IgM", "settings": "Table IV; relative to reference compound 66 co-tested in the same assay (rIP = 1)", "procedure": "as §1", "values": [
      {"smiles": "CC(=O)N[C@H]1[C@H]([C@H](O)[C@H](O)CNC(=O)c2ccc(-c3ccccc3)nc2)O[C@@](OCCCCCC(=O)[O-])(C(=O)[O-])C[C@@H]1NC(=O)OCc1ccccc1.[Na+].[Na+]", "note": "[Compound 74]", "rIP": 0.20},
      {"smiles": "CC(=O)N[C@H]1[C@H]([C@H](O)[C@H](O)CNC(=O)c2ccc(-c3cccs3)cc2)O[C@@](OCCCCCC(=O)[O-])(C(=O)[O-])C[C@@H]1NC(=O)OCc1ccccc1.[Na+].[Na+]", "note": "[Compound 70]", "rIP": 0.88},
      {"smiles": "CC(=O)N[C@H]1[C@H]([C@H](O)[C@H](O)CNC(=O)c2ccc(-c3ccccc3F)cc2)O[C@@](OCCCCCC(=O)[O-])(C(=O)[O-])C[C@@H]1NC(=O)OCc1ccccc1.[Na+].[Na+]", "note": "[Compound 68]", "rIP": 0.76},
      {"smiles": "COc1ccccc1-c1ccc(C(=O)NC[C@@H](O)[C@@H](O)[C@@H]2O[C@@](OCCCCCC(=O)[O-])(C(=O)[O-])C[C@H](NC(=O)OCc3ccccc3)[C@H]2NC(C)=O)cc1.[Na+].[Na+]", "note": "[Compound 69]", "rIP": 0.83},
      {"smiles": "CC(=O)N[C@H]1[C@H]([C@H](O)[C@H](O)CNC(=O)c2ccc(-c3ccccc3)cc2)O[C@@](OCCCCCC(=O)[O-])(C(=O)[O-])C[C@@H]1NC(=O)OCc1ccccc1.[Na+].[Na+]", "note": "[Compound 66]", "rIP": 1},
      {"smiles": "CC(=O)N[C@H]1[C@H]([C@H](O)[C@H](O)CNC(=O)c2ccc(Oc3ccccc3)cc2)O[C@@](OCCCCCC(=O)[O-])(C(=O)[O-])C[C@@H]1NC(=O)OCc1ccccc1.[Na+].[Na+]", "note": "[Compound 75]", "rIP": 0.25}
    ]}
  ]
}
